Test results reported in ChEMBL document CHEMBL1201862, “PubChem BioAssay data set” (2004).
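Values below derive from 48-hour exposures of cells grown in 96-well plates, with endpoints linearly interpolated between the two concentrations bracketing the appropriate inhibition level. Here, GI50 denotes the concentration required for 50% inhibition of growth.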 Activity calls are given as the source filed them. No stated cut-off is given here; in the data, active = GI50 up to about 1.1 µM and inactive = higher.

Tests used:
Test in all cases: NCI anticancer screen, dose series, 48 h
SK-MEL-2 = system: SK-MEL-2
OVCAR-3 = system: OVCAR-3
HCT-15 = system: HCT-15
OVCAR-5 = system: OVCAR-5
HCT-116 = system: HCT-116
RPMI-8226 = system: RPMI-8226
IGROV-1 = system: IGROV-1
EKVX = system: EKVX
HL-60 = system: HL-60
ACHN = system: ACHN
RXF 393 = system: RXF 393
PC-3 = system: PC-3
UACC-257 = system: UACC-257
CCRF-CEM = system: CCRF-CEM
NCI-H522 = system: NCI-H522
KM12 = system: KM12
HT-29 = system: HT-29
LOX IMVI = system: LOX IMVI
SNB-75 = system: SNB-75
A498 = system: A498

Row | SMILES | GI50 (SK-MEL-2) | GI50 (OVCAR-3) | GI50 (HCT-15) | GI50 (OVCAR-5) | GI50 (HCT-116) | GI50 (RPMI-8226) | GI50 (IGROV-1) | GI50 (EKVX) | GI50 (HL-60) | GI50 (ACHN) | GI50 (RXF 393) | GI50 (PC-3) | GI50 (UACC-257) | GI50 (CCRF-CEM) | GI50 (NCI-H522) | GI50 (KM12) | GI50 (HT-29) | GI50 (LOX IMVI) | GI50 (SNB-75) | GI50 (A498)
1 | COc1ccc2c(c1O)[C@@]13CCCC=C1[C@@H](C2)N(C)CC3 | 36.7 µM (inactive) | 50.7 µM (inactive) | > 100 µM | > 100 µM (inactive) | 36.6 µM (inactive) | 29.3 µM (inactive) | > 100 µM (inactive) | > 100 µM (inactive) | 21.4 µM (inactive) | > 100 µM (inactive) | > 100 µM (inactive) | 59.6 µM (inactive) | > 100 µM (inactive) | 27.5 µM (inactive) | 25.2 µM (inactive) | > 100 µM (inactive) | 32.1 µM (inactive) | 41.4 µM (inactive) | 36.7 µM (inactive) | 
2 | CC(NC(=O)c1c(O)[nH]c(=S)[nH]c1=O)c1ccc([N+](=O)[O-])cc1 (stereo not drawn) | 32.5 µM (inactive) | 36.1 µM (inactive) | > 100 µM | > 100 µM (inactive) | 61 µM (inactive) | > 100 µM (inactive) | > 100 µM (inactive) | > 100 µM (inactive) | > 100 µM (inactive) | > 100 µM (inactive) | > 100 µM (inactive) | 40.7 µM (inactive) | > 100 µM (inactive) | 40.8 µM (inactive) |  | 47.6 µM (inactive) | > 100 µM (inactive) | 90.8 µM (inactive) | 17.9 µM (inactive) | 
3 | COC(=O)C(C)(Cc1ccc2c(c1)nnn2C(C)=O)NC(C)=O (stereo not drawn) | > 100 µM (inactive) | > 100 µM (inactive) | > 100 µM | > 100 µM (inactive) | > 100 µM (inactive) | > 100 µM (inactive) | > 100 µM (inactive) | > 100 µM (inactive) | > 100 µM (inactive) | > 100 µM (inactive) | > 100 µM (inactive) | > 100 µM (inactive) | > 100 µM (inactive) | > 100 µM (inactive) | > 100 µM (inactive) | > 100 µM (inactive) | > 100 µM (inactive) | > 100 µM (inactive) | > 100 µM (inactive) | 
4 | CS/C(=N/C(=O)c1ccccc1)SCCS/C(=N\C(=O)c1ccccc1)SC | > 100 µM (inactive) | 68.5 µM (inactive) | > 100 µM | > 100 µM (inactive) | > 100 µM (inactive) | > 100 µM (inactive) | > 100 µM (inactive) | > 100 µM (inactive) | > 100 µM (inactive) | > 100 µM (inactive) | 73.6 µM (inactive) |  | > 100 µM (inactive) | > 100 µM (inactive) | 69.2 µM (inactive) | > 100 µM (inactive) | > 100 µM (inactive) | > 100 µM (inactive) | 33.8 µM (inactive) | > 100 µM (inactive)
5 | C=C1CN(C(=O)c2cc3cc(OC)c(OC)c(OC)c3[nH]2)c2cc([N+](=O)[O-])ccc21 | 34.8 µM (inactive) | > 100 µM (inactive) | > 100 µM | > 100 µM (inactive) | > 100 µM (inactive) | > 100 µM (inactive) | > 100 µM (inactive) | > 100 µM (inactive) | > 100 µM (inactive) |  | 14.6 µM (inactive) | > 100 µM (inactive) | > 100 µM (inactive) |  |  | > 100 µM (inactive) | > 100 µM (inactive) | > 100 µM (inactive) | 51.1 µM (inactive) | 64.4 µM (inactive)
6 | CC(C)c1cccc(C(C)C)c1N1C(=O)C(=O)C(c2nc3ccccc3o2)C(=O)C1=O | > 100 µM (inactive) | 33.7 µM (inactive) | 49.7 µM | > 100 µM (inactive) | 25.8 µM (inactive) | 35.4 µM (inactive) | > 100 µM (inactive) | > 100 µM (inactive) | 30.3 µM (inactive) | > 100 µM (inactive) | 92.3 µM (inactive) |  | > 100 µM (inactive) | 8.95 µM (inactive) | 19.5 µM (inactive) | > 100 µM (inactive) | 30.3 µM (inactive) | > 100 µM (inactive) | 26.2 µM (inactive) | > 100 µM (inactive)
7 | O=C1c2ccccc2-c2c1c(-c1ccc([N+](=O)[O-])cc1)nc1ccc3ccccc3c21 | > 100 µM (inactive) | > 100 µM (inactive) | > 100 µM | > 100 µM (inactive) | > 100 µM (inactive) | > 100 µM (inactive) |  | > 100 µM (inactive) |  | > 100 µM (inactive) |  | > 100 µM (inactive) | > 100 µM (inactive) | > 100 µM (inactive) |  | > 100 µM (inactive) | > 100 µM (inactive) |  | > 100 µM (inactive) | > 100 µM (inactive)
8 | O=C1C(Cl)C(c2cccc(Br)c2)N1c1c(O)c(Cl)cc(Br)c1Cl (stereo not drawn) | 7.08 µM (inactive) | 16.1 µM (inactive) | 2.32 µM | 26.7 µM (inactive) | 14.5 µM (inactive) | 14.4 µM (inactive) | 1.25 µM (inactive) | 17 µM (inactive) | 26.4 µM (inactive) | 15.2 µM (inactive) | 10.9 µM (inactive) | 18 µM (inactive) | 10.8 µM (inactive) | 14.6 µM (inactive) | 14.1 µM (inactive) | 16.7 µM (inactive) | 5.81 µM (inactive) | 14.5 µM (inactive) |  | 
9 | COc1cc(Cc2nccc3cc(OC)c(OC)cc23)c(/N=N/N(C)C)cc1OC | 30.6 µM (inactive) | 15.5 µM (inactive) | 5 µM | 20.5 µM (inactive) | 5.08 µM (inactive) | 4.73 µM (inactive) | 13.5 µM (inactive) | 14.6 µM (inactive) |  | 15.1 µM (inactive) | 2.99 µM (inactive) | 10.7 µM (inactive) | 20.3 µM (inactive) | 3.18 µM (inactive) |  | 18.7 µM (inactive) | 10.4 µM (inactive) |  | 34 µM (inactive) | 
10 | C=C1C(=O)OC2C1CCC(C)C1(O)C=CC(=O)C21C (stereo not drawn) | > 10 µM (inactive) | 4.9 µM (inactive) | 4.5 µM |  | 5.04 µM (inactive) | 5.43 µM (inactive) | > 10 µM (inactive) | > 10 µM (inactive) | 2.39 µM (inactive) | 5.66 µM (inactive) | 9.31 µM (inactive) | > 10 µM (inactive) |  | 2.73 µM (inactive) |  | > 10 µM (inactive) | > 10 µM (inactive) | > 10 µM (inactive) | 6.65 µM (inactive) | 5.46 µM (inactive)
11 | COC1=CC(O)(CC(N)=O)c2ccccc2C1=O (stereo not drawn) | > 100 µM (inactive) | > 100 µM (inactive) | > 100 µM | > 100 µM (inactive) | > 100 µM (inactive) | > 100 µM (inactive) | > 100 µM (inactive) | > 100 µM (inactive) | > 100 µM (inactive) | > 100 µM (inactive) | > 100 µM (inactive) |  | > 100 µM (inactive) | > 100 µM (inactive) | > 100 µM (inactive) | > 100 µM (inactive) | > 100 µM (inactive) | > 100 µM (inactive) | > 100 µM (inactive) | > 100 µM (inactive)
12 | CCOC(=O)C(=O)/C(=C/n1c(=S)[nH]c2ccc([N+](=O)[O-])cc21)C(=O)OCC | > 100 µM (inactive) | > 100 µM (inactive) |  | > 100 µM (inactive) | > 100 µM (inactive) | > 100 µM (inactive) |  |  | > 100 µM (inactive) | > 100 µM (inactive) | > 100 µM (inactive) | > 100 µM (inactive) | > 100 µM (inactive) | > 100 µM (inactive) |  | > 100 µM (inactive) | > 100 µM (inactive) | > 100 µM (inactive) | 90.4 µM (inactive) | > 100 µM (inactive)
13 | S=C1CC(c2ccccc2)Sc2cc(Cl)ccc2N1 (stereo not drawn) |  | 2.49 µM (inactive) | 1.32 µM | > 100 µM (inactive) | 3.03 µM (inactive) | 43.5 µM (inactive) | 16 µM (inactive) | 20.7 µM (inactive) | 0.726 µM (active) | 9.46 µM (inactive) | 6.55 µM (inactive) | 1.87 µM (inactive) | 6.04 µM (inactive) | 1.36 µM (inactive) | 2.21 µM (inactive) | 3.97 µM (inactive) | 4.4 µM (inactive) | 4.09 µM (inactive) | 5.24 µM (inactive) | 
14 | Cc1cc(O)no1 [HYMEXAZOL] | > 100 µM (inactive) | > 100 µM (inactive) | > 100 µM | > 100 µM (inactive) | > 100 µM (inactive) | > 100 µM (inactive) | > 100 µM (inactive) | > 100 µM (inactive) |  | 18.9 µM (inactive) | > 100 µM (inactive) | > 100 µM (inactive) | > 100 µM (inactive) |  | > 100 µM (inactive) |  | > 100 µM (inactive) | > 100 µM (inactive) | > 100 µM (inactive) | 
15 | CC(C)(C)c1ccc2c(c1)C(=O)c1ccccc1C2=O |  | > 100 µM (inactive) | 39.7 µM | 82.6 µM (inactive) | 76 µM (inactive) | 31.3 µM (inactive) | 33 µM (inactive) | 19 µM (inactive) | 64.6 µM (inactive) | 37.9 µM (inactive) | 26.1 µM (inactive) | 37.7 µM (inactive) | 40.2 µM (inactive) | 57.1 µM (inactive) |  | 36 µM (inactive) | 27.2 µM (inactive) | 41.4 µM (inactive) | 16.2 µM (inactive) | 41.3 µM (inactive)
16 | CCOC(=O)/C(=C\c1ccc(O)c(OC)c1)C(=O)c1ccccc1 | 12.5 µM (inactive) | 26.9 µM (inactive) | 8.75 µM | 26.8 µM (inactive) | 10.6 µM (inactive) | 9.77 µM (inactive) | 19.2 µM (inactive) | > 38.9 µM (inactive) | 10.4 µM (inactive) | 15.8 µM (inactive) | 22.7 µM (inactive) |  | 18.4 µM (inactive) | 7.5 µM (inactive) | 7.5 µM (inactive) | 11.6 µM (inactive) | 24.7 µM (inactive) | 7.21 µM (inactive) | 20.2 µM (inactive) | 17 µM (inactive)
